Data published in PubChem BioAssay (NCI).
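Here, GI50 denotes the concentration required for 50% inhibition of growth. TGI: total growth inhibition.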

How the values were obtained:
Assay in all cases: growth of human tumour cells (NCI), 384-well format
[1] = test system: LOX IMVI melanoma
[2] = test system: SF-539 CNS
[3] = test system: A498 renal
[4] = test system: DU-145 prostate
[5] = test system: UACC-257 melanoma
[6] = test system: SF-295 CNS
[7] = test system: RXF 393 renal
[8] = test system: BT-549 breast
[9] = test system: RPMI-8226 leukemia
[10] = test system: NCI-H226 lung
[11] = test system: UO-31 renal
[12] = test system: IGROV1 ovarian
[13] = test system: OVCAR-3 ovarian
[14] = test system: EKVX NSCLC
[15] = test system: SR leukemia
[16] = test system: HT29 colon
[17] = test system: SK-MEL-5 melanoma
[18] = test system: HL-60(TB) leukemia
[19] = test system: HCC-2998 colon
[20] = test system: NCI/ADR-RES ovarian
[21] = test system: SN12C renal
[22] = test system: SF-268 CNS
[23] = test system: TK-10 renal
[24] = test system: SK-MEL-28 melanoma
[25] = test system: SNB-75 CNS
[26] = test system: HCT-15 colon
[27] = test system: MDA-MB-435 melanoma
[28] = test system: NCI-H460 NSCLC
[29] = test system: HS 578T breast
[30] = test system: SW-620 colon
[31] = test system: HOP-62 NSCLC
[32] = test system: MDA-MB-231 breast
[33] = test system: PC-3 prostate
[34] = test system: SK-OV-3 ovarian
[35] = test system: OVCAR-4 ovarian
[36] = test system: OVCAR-8 ovarian
[37] = test system: NCI-H322M lung
[38] = test system: COLO 205 colon
[39] = test system: MALME-3M melanoma
[40] = test system: CAKI-1 renal
[41] = test system: ACHN renal
[42] = test system: T-47D breast
[43] = test system: SNB-19 CNS
[44] = test system: NCI-H23 lung
[45] = test system: KM12 colon
[46] = test system: HOP-92 NSCLC
[47] = test system: MCF7 breast
[48] = test system: 786-0 renal
[49] = test system: M14 melanoma
[50] = test system: K-562 leukemia
[51] = test system: HCT-116 colon
[52] = test system: CCRF-CEM leukemia
[53] = test system: U251 glioblastoma
[54] = test system: MDA-MB-468 breast
[55] = test system: MOLT-4 leukemia
[56] = test system: NCI-H522 lung
[57] = test system: A549 NSCLC
[58] = test system: OVCAR-5 ovarian

`CCC[C@H](Nc1nc(-c2ccc(NC(=O)NCC)c(OC)c2)ncc1C)c1cccnc1` was tested. Which GI50 [1] did it give?
The GI50 was 25.6 nM.

And the TGI [1]?
Its TGI is 67 nM.

What about the GI50 [2] of the same compound?
The GI50 was 18.3 nM.

What about the TGI [2] of the same compound?
The TGI was 36.5 nM.

And the GI50 [3]?
The GI50 was 32.1 nM.

What about the TGI [3] of the same compound?
The TGI was 479 nM.

And the GI50 [4]?
The GI50 was 30.7 nM.

What about the TGI [4] of the same compound?
Its TGI is 91.6 nM.

And the GI50 [5]?
Its GI50 is 74.5 nM.

What about the TGI [5] of the same compound?
The TGI was 16400 nM.

And the GI50 [6]?
Its GI50 is 18.5 nM.

What about the TGI [6] of the same compound?
The TGI was 43.1 nM.

What about the GI50 [7] of the same compound?
Its GI50 is 16.4 nM.

And the TGI [7]?
Its TGI is 40.6 nM.

And the GI50 [8]?
Its GI50 is 22.7 nM.

And the TGI [8]?
The TGI was 59 nM.

And the GI50 [9]?
Its GI50 is 18.2 nM.

What about the TGI [9] of the same compound?
The TGI was 32.8 nM.

And the GI50 [10]?
The GI50 was 26.9 nM.

And the TGI [10]?
The TGI was 75.3 nM.

And the GI50 [11]?
Its GI50 is 62.8 nM.

What about the TGI [11] of the same compound?
The TGI was 15300 nM.

What about the GI50 [12] of the same compound?
Its GI50 is 40.4 nM.

What about the TGI [12] of the same compound?
The TGI was 12400 nM.

What about the GI50 [13] of the same compound?
Its GI50 is 19.5 nM.

And the TGI [13]?
Its TGI is 43 nM.

And the GI50 [14]?
Its GI50 is 43 nM.

What about the TGI [14] of the same compound?
The TGI was 13300 nM.

And the TGI [15]?
The TGI was 16.1 nM.

And the GI50 [16]?
Its GI50 is 28.9 nM.

And the TGI [16]?
The TGI was 12600 nM.

What about the GI50 [17] of the same compound?
Its GI50 is 17.5 nM.

And the TGI [17]?
The TGI was 36.5 nM.

And the GI50 [18]?
The GI50 was 16.5 nM.

And the TGI [18]?
The TGI was 30.4 nM.

What about the GI50 [19] of the same compound?
The GI50 was 22.9 nM.

And the TGI [19]?
Its TGI is 63 nM.

What about the GI50 [20] of the same compound?
Its GI50 is 170 nM.

And the TGI [20]?
The TGI was 426 nM.

And the GI50 [21]?
Its GI50 is 37.9 nM.

And the TGI [21]?
Its TGI is 10500 nM.

And the GI50 [22]?
The GI50 was 27.3 nM.

And the TGI [22]?
The TGI was 169 nM.

What about the GI50 [23] of the same compound?
The GI50 was 47.3 nM.

And the TGI [23]?
The TGI was 16700 nM.

And the GI50 [24]?
The GI50 was 95.6 nM.

What about the TGI [24] of the same compound?
Its TGI is 16200 nM.

And the GI50 [25]?
Its GI50 is 33.4 nM.

And the TGI [25]?
The TGI was 11300 nM.

And the GI50 [26]?
The GI50 was 24 nM.

What about the TGI [26] of the same compound?
Its TGI is 68.3 nM.

What about the GI50 [27] of the same compound?
Its GI50 is 19.1 nM.

What about the TGI [27] of the same compound?
The TGI was 38.2 nM.

And the GI50 [28]?
The GI50 was 17.8 nM.

What about the TGI [28] of the same compound?
The TGI was 35.4 nM.

What about the GI50 [29] of the same compound?
Its GI50 is 18.7 nM.

And the TGI [29]?
The TGI was 37.3 nM.

What about the GI50 [30] of the same compound?
Its GI50 is 43.4 nM.

What about the TGI [30] of the same compound?
Its TGI is 16500 nM.

What about the GI50 [31] of the same compound?
The GI50 was 33.1 nM.

And the TGI [31]?
Its TGI is 1180 nM.

And the GI50 [32]?
The GI50 was 45.2 nM.

What about the TGI [32] of the same compound?
The TGI was 17400 nM.

What about the GI50 [33] of the same compound?
The GI50 was 38.5 nM.

What about the TGI [33] of the same compound?
Its TGI is 16500 nM.

And the GI50 [34]?
Its GI50 is 34.8 nM.

And the TGI [34]?
Its TGI is 1500 nM.

What about the GI50 [35] of the same compound?
The GI50 was 48.6 nM.

What about the TGI [35] of the same compound?
Its TGI is 8480 nM.

What about the GI50 [36] of the same compound?
The GI50 was 21.1 nM.

And the TGI [36]?
Its TGI is 49.2 nM.

And the GI50 [37]?
The GI50 was 40.8 nM.

What about the TGI [37] of the same compound?
The TGI was 20600 nM.

What about the GI50 [38] of the same compound?
The GI50 was 19.3 nM.

What about the TGI [38] of the same compound?
The TGI was 41.7 nM.

And the GI50 [39]?
The GI50 was 32 nM.

And the TGI [39]?
The TGI was 15000 nM.

And the GI50 [40]?
Its GI50 is 30 nM.

What about the TGI [40] of the same compound?
Its TGI is 14800 nM.

And the GI50 [41]?
Its GI50 is 55 nM.

What about the TGI [41] of the same compound?
Its TGI is 15600 nM.

And the GI50 [42]?
Its GI50 is 71.9 nM.

What about the TGI [42] of the same compound?
The TGI was 14400 nM.

What about the GI50 [43] of the same compound?
The GI50 was 35.3 nM.

What about the TGI [43] of the same compound?
Its TGI is 10300 nM.

What about the GI50 [44] of the same compound?
Its GI50 is 20.7 nM.

And the TGI [44]?
The TGI was 51.6 nM.

And the GI50 [45]?
The GI50 was 26.4 nM.

And the TGI [45]?
The TGI was 1180 nM.

And the GI50 [46]?
The GI50 was 30.4 nM.

And the TGI [46]?
The TGI was 650 nM.

And the GI50 [47]?
The GI50 was 29.6 nM.

What about the TGI [47] of the same compound?
Its TGI is 1360 nM.

What about the GI50 [48] of the same compound?
The GI50 was 31.7 nM.

What about the TGI [48] of the same compound?
Its TGI is 97.5 nM.

What about the GI50 [49] of the same compound?
Its GI50 is 21.8 nM.

What about the TGI [49] of the same compound?
The TGI was 63.6 nM.

What about the GI50 [50] of the same compound?
The GI50 was 20.3 nM.

And the TGI [50]?
Its TGI is 39.6 nM.

And the GI50 [51]?
The GI50 was 26.3 nM.

What about the TGI [51] of the same compound?
Its TGI is 74.5 nM.

And the GI50 [52]?
The GI50 was 20 nM.

What about the TGI [52] of the same compound?
The TGI was 34.5 nM.

What about the GI50 [53] of the same compound?
The GI50 was 25 nM.

And the TGI [53]?
Its TGI is 64.6 nM.

What about the GI50 [54] of the same compound?
Its GI50 is 16.8 nM.

What about the TGI [54] of the same compound?
Its TGI is 33.4 nM.

And the GI50 [55]?
The GI50 was 19.7 nM.

And the TGI [55]?
Its TGI is 34.2 nM.

What about the GI50 [56] of the same compound?
The GI50 was 17.6 nM.

And the TGI [56]?
The TGI was 37.8 nM.

And the GI50 [57]?
Its GI50 is 43.4 nM.

What about the TGI [57] of the same compound?
Its TGI is 17400 nM.

And the GI50 [58]?
The GI50 was 798 nM.

What about the TGI [58] of the same compound?
Its TGI is 84800 nM.
